Two molecules from BindingDB's records for doi:10.7270/Q2KW5DFJ (Emory University, 2007) can be followed below.

pIC50: −log10 of the molar value.

The target of the assay is T1, Ubiquitin carboxyl-terminal hydrolase BAP1 (Homo sapiens, UniProt Q92560).
T1 sequence (Q92560 whole entry): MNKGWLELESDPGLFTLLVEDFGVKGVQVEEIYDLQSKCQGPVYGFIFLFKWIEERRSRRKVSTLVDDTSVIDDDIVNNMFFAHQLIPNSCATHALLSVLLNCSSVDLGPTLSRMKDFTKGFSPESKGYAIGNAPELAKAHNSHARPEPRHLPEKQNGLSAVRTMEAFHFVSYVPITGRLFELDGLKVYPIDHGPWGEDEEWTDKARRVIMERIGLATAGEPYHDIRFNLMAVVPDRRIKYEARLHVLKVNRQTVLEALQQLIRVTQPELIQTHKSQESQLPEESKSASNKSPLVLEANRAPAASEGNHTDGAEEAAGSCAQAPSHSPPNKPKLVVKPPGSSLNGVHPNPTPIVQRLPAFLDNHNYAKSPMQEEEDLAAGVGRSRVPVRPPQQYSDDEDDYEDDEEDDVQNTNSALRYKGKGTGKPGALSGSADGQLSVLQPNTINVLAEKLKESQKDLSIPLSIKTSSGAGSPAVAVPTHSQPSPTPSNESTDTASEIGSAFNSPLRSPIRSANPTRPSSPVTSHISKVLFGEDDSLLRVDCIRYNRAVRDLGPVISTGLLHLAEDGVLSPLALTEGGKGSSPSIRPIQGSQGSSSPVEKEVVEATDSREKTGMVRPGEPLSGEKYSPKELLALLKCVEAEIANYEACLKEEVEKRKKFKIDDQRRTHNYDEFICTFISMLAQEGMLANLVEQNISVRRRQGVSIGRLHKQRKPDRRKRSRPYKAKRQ
Briefly: inhibition of BAP1 ubiquitin hydrolase activity – biochemical, dose response (AID 714).

The pIC50 is −log10 of the IC50, conventionally taken in molar units. A lower pIC50 goes with a large IC50. The molecule `CCCOC(=O)C1=C(C)N=C2CCCC(=O)C2C1c1cccc(OC)c1OC` (configuration not stated) [4-(2,3-dimethoxyphenyl)-2-methyl-5-oxo-4,6,7,8-tetrahydro-1H-quinoline-3-carboxylic acid propyl ester] had a pIC50 of 4.47. The molecule `CC(=O)C1=C(C)N=C(SCC(=O)c2ccc(Cl)c(Cl)c2)C(C#N)C1c1ccco1` (configuration not stated) [5-acetyl-2-[2-(3,4-dichlorophenyl)-2-oxoethyl]sulfanyl-4-(furan-2-yl)-6-methyl-1,4-dihydropyridine-3-carbonitrile] had a pIC50 of less than 4.30.
